From patent publication US11787812B2, “Substituted pyrazolo[4,3-d]pyrimidines and imidazo[5,1 -f][1,2,4]triazines as androgen receptor and phosphodiesterase dual inhibitors” (ILDONG PHARMACEUTICAL CO., LTD., priority 2020, dated 2023) come the findings set out here.

Bounds are passed on as bounds.

One test deals with human PDE-5A1 (Homo sapiens (Human), UniProt O76074). The test is described as follows: Human PDE-5A1 inhibition assay (fluorescence polarization, FAM-cGMP). The following applies: human PDE5A1, 100 nM FAM-cGMP, 60 minutes room temperature. Type of test: biochemical. From the text:
This example illustrates the in vitro inhibition of human PDE-5A1 by exemplary compounds of this disclosure (e.g., as described herein).
Sildenafil citrate (Catalog no. LKT-S3313, Axxora, San Diego, CA), Vardenafil hydrochloride trihydrate (Catalog no. SML2103, Sigma-Aldrich, St. Louis, MO), PDE Assay Buffer (Catalog no. 60393, BPS bioscience, San Diego, CA), PDE Binding Agent (Catalog no. 60390, BPS bioscience, San Diego, CA) and PDE Binding Agent Diluent (cGMP, Catalog no. 60392, BPS bioscience, San Diego, CA) were used for assays. Test compounds were supplied by Ildong Pharmaceuticals Co., Ltd.
The serial dilution of the compounds was first performed in 100% DMSO with the highest concentration at 1 mM and 0.1 mM. Each intermediate compound dilution (in 100% DMSO) will then get directly diluted 10× fold into assay buffer for 10% DMSO and 5 μL of the dilution was added to a 50 μL reaction so that the final concentration of DMSO is 1% in all reactions.
The enzymatic reactions were conducted at room temperature for 60 minutes in a 50 μL mixture containing PDE assay buffer, 100 nM FAM-cGMP, a PDE enzyme (Table 2) and the test compounds.
After enzymatic reaction, 100 μL of a binding solution (1:100 dilution of the binding agent with the binding agent diluent) was added to each reaction and the reaction was performed at room temperature for 60 minutes.
Fluorescence intensity was measured at excitation of 485 nm and an emission of 528 nm using a Tecan Infinite M1000 microplate reader.
PDE activity assays were performed in duplicate at each concentration. Fluorescence intensity is converted to fluorescence polarization using the Tecan Magellan6 software. The fluorescence polarization (FPt) in absence of the compound in each data set was defined as 100% activity. In the absence of PDE and the compound, the value fluorescent polarization (FPb) in each data set was defined as 0% activity. The percent activity in the presence of compound was calculated according to Equation 1:
[formula] where FP=the fluorescence polarization in the presence of the compound.
The values of % activity versus a series of compound concentrations were then plotted using non-linear regression analysis of Sigmoidal dose-response curve generated with Equation 2:
[formula] where Y=percent activity, B=minimum percent activity, T=maximum percent activity, X=logarithm of compound, and Hill Slope=slope factor or Hill coefficient. The IC50 value was determined by the concentration causing a half-maximal percent activity. Results

Another test concerns the target Human androgen receptors (Homo sapiens (Human), UniProt P10275, T878A). The test is described as follows: Androgen receptor (AR) radioligand binding assay. The note with it: read-out: AR IC50. The method, then: Methods employed in this study have been adapted from the following literature procedure.
Human androgen receptors obtained from human LNCaP cells are used in modified HEPES buffer pH 7.4. […] Non-specific binding is estimated in the presence of 1 μM testosterone. […] (See, e.g., Traish, A. M et al., Binding of 7α, 17α-dimethyl-19-nortestosterone (Mibolerone) to androgen and progesterone receptors in human and animal tissues. Endocrinology. 118(4): 1327-1333, 1986).
Compounds are screened at 10 μM.
Where presented, IC50 values were determined by a non-linear, least squares regression analysis using MathIQ™ (ID Business Solutions Ltd., UK).

The target of a further test is androgen receptor (AR) (Homo sapiens (Human), UniProt P10275). The test is described as follows: Androgen receptor (AR) reporter assay, antagonist screen activated by R1881. The format is cell-based. The following applies: AR-UAS-bla GripTite 293 cells, antagonist mode, R1881 at EC80. The procedure:
The protocols and results of this Example were carried out and obtained by Thermofisher Scientific.
Test compounds were received at 1000× (or greater) of the desired starting concentration in 100% DMSO. If compounds were supplied at greater that 1000× concentration, an initial dilution is made in 100% DMSO to bring the compounds to 1000× concentration. The 1000× test compounds were serially diluted (10 point ½-log increments) in 100% DMSO.
The Substrate Loading Solution consists of three Life Technologies reagents: Solution A (10 mM LiveBLAzer™-FRET B/G Substrate), Solution B and Solution C.
Androgen Receptor (AR)—Antagonist Screen, Activated by R1881
AR-UAS-bla GripTite™ 293 cells were thawed and resuspended in Assay Media (DMEM phenol red free, 2% CD-treated FBS, 0.1 mM NEAA, 1 mM Sodium Pyruvate, 100 U/mL/100 μg/mL Pen/Strep) to a concentration of 312,500 cells/mL. 4 μL of a 10× serial dilution of Cyproterone Acetate (control antagonist starting concentration, 3,160 nM) or compounds are added to appropriate wells of a Poly-D-Lysine assay plate. 32 μL of cell suspension was added to the wells and pre-incubated at 37° C./5% CO2 in a humidified incubator with compounds and control antagonist titration for 30 minutes. 4 μL of 10× control agonist R1881 at the pre-determined EC80 concentration was added to wells containing the control antagonist or compounds. The plate was incubated for 16-24 hours at 37° C./5% CO2 in a humidified incubator. 8 μL of 1 μM Substrate Loading Solution is added to each well and the plate was incubated for 2 hours at room temperature. The plate was read on a fluorescence plate reader (Tecan Safire^2).

Chain of androgen receptor (AR) (P10275 other isoform, or with tags, fused parts or gaps): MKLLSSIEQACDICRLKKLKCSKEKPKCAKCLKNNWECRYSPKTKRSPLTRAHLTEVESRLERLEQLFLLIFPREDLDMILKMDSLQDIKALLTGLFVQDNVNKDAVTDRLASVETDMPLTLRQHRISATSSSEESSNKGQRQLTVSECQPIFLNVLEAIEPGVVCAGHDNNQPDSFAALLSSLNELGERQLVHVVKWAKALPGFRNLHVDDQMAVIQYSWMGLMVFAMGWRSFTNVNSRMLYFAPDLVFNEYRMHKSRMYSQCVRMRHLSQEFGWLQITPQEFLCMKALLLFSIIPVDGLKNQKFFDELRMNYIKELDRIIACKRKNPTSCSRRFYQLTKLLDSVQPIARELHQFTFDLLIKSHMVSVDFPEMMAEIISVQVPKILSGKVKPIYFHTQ
Chain of Human androgen receptors (P10275 whole entry T878A): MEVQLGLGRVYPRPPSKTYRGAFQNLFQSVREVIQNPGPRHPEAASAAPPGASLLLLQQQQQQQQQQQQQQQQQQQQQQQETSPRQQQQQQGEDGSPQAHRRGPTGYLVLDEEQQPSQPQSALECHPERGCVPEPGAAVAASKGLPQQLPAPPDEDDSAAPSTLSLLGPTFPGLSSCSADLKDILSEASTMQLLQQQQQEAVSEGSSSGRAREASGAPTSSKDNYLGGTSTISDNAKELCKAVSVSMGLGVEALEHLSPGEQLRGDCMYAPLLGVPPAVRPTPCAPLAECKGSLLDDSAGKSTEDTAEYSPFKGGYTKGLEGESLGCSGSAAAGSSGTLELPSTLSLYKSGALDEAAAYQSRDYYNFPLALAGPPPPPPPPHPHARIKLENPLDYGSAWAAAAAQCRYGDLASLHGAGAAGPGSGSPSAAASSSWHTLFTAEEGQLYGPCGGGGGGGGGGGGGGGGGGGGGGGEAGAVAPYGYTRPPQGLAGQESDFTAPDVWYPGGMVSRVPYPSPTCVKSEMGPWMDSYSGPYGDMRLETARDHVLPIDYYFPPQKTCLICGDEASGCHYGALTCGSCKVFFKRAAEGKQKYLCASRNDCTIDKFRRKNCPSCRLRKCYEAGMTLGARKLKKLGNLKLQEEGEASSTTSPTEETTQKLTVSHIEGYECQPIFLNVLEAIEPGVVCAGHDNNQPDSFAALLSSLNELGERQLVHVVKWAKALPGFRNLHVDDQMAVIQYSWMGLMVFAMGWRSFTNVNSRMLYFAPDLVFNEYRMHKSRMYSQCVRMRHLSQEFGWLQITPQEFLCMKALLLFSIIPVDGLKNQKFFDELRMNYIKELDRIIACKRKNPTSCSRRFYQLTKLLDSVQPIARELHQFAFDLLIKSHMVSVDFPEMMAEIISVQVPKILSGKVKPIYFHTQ

Take `CCCc1nn(C)c2c(=O)[nH]c(-c3cc(S(=O)(=O)Nc4ccc(C#N)c(C(F)(F)F)c4)ccc3OCC)nc12` [Compound 1, N-(4-cyano-3-(trifluoromethyl)phenyl)-4-ethoxy-3-(1-methyl-7-oxo-3-propyl-6,7-dihydro-1H-pyrazolo[4,3-d]pyrimidin-5-yl)benzenesulfonamide]: the IC50 at human PDE-5A1 is not above 10 nM. The same measure, in the same setting: as for `CCCc1nn(C)c2c(=O)[nH]c(-c3cc(SC[C@](C)(O)C(=O)Nc4ccc(C#N)c(C(F)(F)F)c4)ccc3OCC)nc12` [Compound 2, (R)-N-(4-cyano-3-(trifluoromethyl)phenyl)-3-((4-ethoxy-3-(1-methyl-7-oxo-3-propyl-6,7-dihydro-1H-pyrazolo[4,3-d]pyrimidin-5-yl)phenyl)thio)-2-hydroxy-2-methylpropanamide], the figure is 10 to 100 nM; as for `CCCc1nn(C)c2c(=O)[nH]c(-c3cc(S(=O)(=O)C[C@](C)(O)C(=O)Nc4ccc(C#N)c(C(F)(F)F)c4)ccc3OCC)nc12` [Compound 3, (R)-N-(4-cyano-3-(trifluoromethyl)phenyl)-3-((4-ethoxy-3-(1-methyl-7-oxo-3-propyl-6,7-dihydro-1H-pyrazolo[4,3-d]pyrimidin-5-yl)phenyl)sulfonyl)-2-hydroxy-2-methylpropanamide], 10 to 100 nM. The same measure, in the same setting: next, `CCCc1nn(C)c2c(=O)[nH]c(-c3cc(S(=O)(=O)NC[C@@](C)(O)C(=O)Nc4ccc(C#N)c(C(F)(F)F)c4)ccc3OCC)nc12` [Compound 4, (R)-N-(4-cyano-3-(trifluoromethyl)phenyl)-3-((4-ethoxy-3-(1-methyl-7-oxo-3-propyl-6,7-dihydro-1H-pyrazolo[4,3-d]pyrimidin-5-yl)phenyl)sulfonamido)-2-hydroxy-2-methylpropanamide]: 10 to 100 nM. Still for that read-out and setting: as for `CCCc1nn(C)c2c(=O)[nH]c(-c3cc(S(=O)(=O)Nc4cnc(C#N)c(C(F)(F)F)c4)ccc3OCC)nc12` [Compound 5, N-(6-cyano-5-(trifluoromethyl)pyridin-3-yl)-4-ethoxy-3-(1-methyl-7-oxo-3-propyl-6,7-dihydro-1H-pyrazolo[4,3-d]pyrimidin-5-yl)benzenesulfonamide], the figure is not above 10 nM. `CCCc1nc(C)c2c(=O)[nH]c(-c3cc(S(=O)(=O)Nc4cnc(C#N)c(C(F)(F)F)c4)ccc3OCC)nn12` [Compound 6, N-(6-cyano-5-(trifluoromethyl)pyridin-3-yl)-4-ethoxy-3-(5-methyl-4-oxo-7-propyl-3,4-dihydroimidazo[5,1-f][1,2,4]triazin-2-yl)benzenesulfonamide] registered a 50% inhibitory concentration (IC50) at human PDE-5A1 not above 10 nM. Same read-out and setting: as for `CCCc1nc(C)c2c(=O)[nH]c(-c3cc(S(=O)(=O)Nc4ccc(C#N)c(C(F)(F)F)c4)ccc3OCC)nn12` [Compound 7, N-(4-cyano-3-(trifluoromethyl)phenyl)-4-ethoxy-3-(5-methyl-4-oxo-7-propyl-3,4-dihydroimidazo[5,1-f][1,2,4]triazin-2-yl)benzenesulfonamide], the figure is not above 10 nM; as for `CCCc1nn(C)c2c(=O)[nH]c(-c3cc(S(=O)(=O)Nc4ccc(C#N)c(Cl)c4)ccc3OCC)nc12` [Compound 8, N-(3-chloro-4-cyanophenyl)-4-ethoxy-3-(1-methyl-7-oxo-3-propyl-6,7-dihydro-1H-pyrazolo[4,3-d]pyrimidin-5-yl)benzenesulfonamide], not above 10 nM; as for `CCCc1nc(C)c2c(=O)[nH]c(-c3cc(S(=O)(=O)Nc4ccc(C#N)c(Cl)c4)ccc3OCC)nn12` [Compound 9, N-(3-chloro-4-cyanophenyl)-4-ethoxy-3-(5-methyl-4-oxo-7-propyl-3,4-dihydroimidazo[5,1-f][1,2,4]triazin-2-yl)benzenesulfonamide], not above 10 nM. `CCCc1nc(C)c2c(=O)[nH]c(-c3cc(S(=O)(=O)N[C@H]4C[C@H](C(O)C(F)(F)F)N(c5ccc(C#N)c(C(F)(F)F)c5)C4)ccc3OCC)nn12` (stereo partly drawn) [Compound 10, N-((3S,5R)-1-(4-cyano-3-(trifluoromethyl)phenyl)-5-(2,2,2-trifluoro-1-hydroxyethyl)pyrrolidin-3-yl)-4-ethoxy-3-(5-methyl-4-oxo-7-propyl-3,4-dihydroimidazo[5,1-f][1,2,4]triazin-2-yl)benzenesulfonamide] yielded an IC50 on human PDE-5A1 not above 10 nM. On the same count and under the same terms, as for `CCCc1nn(C)c2c(=O)[nH]c(-c3cc(S(=O)(=O)N[C@@H](C)Cn4ccc(-c5ccc(C#N)c(Cl)c5)n4)ccc3OCC)nc12` [Compound 11, (S)-N-(1-(3-(3-chloro-4-cyanophenyl)-1H-pyrazol-1-yl)propan-2-yl)-4-ethoxy-3-(1-methyl-7-oxo-3-propyl-6,7-dihydro-1H-pyrazolo[4,3-d]pyrimidin-5-yl)benzenesulfonamide], the figure is more than 100 nM.

On to `CCCc1nc(C)c2c(=O)[nH]c(-c3cc(N4C(=S)N(c5cnc(C#N)c(C(F)(F)F)c5)C(=O)C45CCC5)ccc3OCC)nn12` [Compound 24, 5-(5-(4-ethoxy-3-(5-methyl-4-oxo-7-propyl-3,4-dihydroimidazo[5,1-f][1,2,4]triazin-2-yl)phenyl)-8-oxo-6-thioxo-5,7-diazaspiro[3.4]octan-7-yl)-3-(trifluoromethyl)picolinonitrile], for which the concentration for half-maximal inhibition (IC50) was 50 to 200 nM on Human androgen receptors and not above 10 nM at human PDE-5A1. `CCCc1nc(C)c2c(=O)[nH]c(-c3cc(N4CC(=O)N(c5ccc(C#N)c(C(F)(F)F)c5)C4=S)ccc3OCC)nn12` [Compound 25, 4-(3-(4-ethoxy-3-(5-methyl-4-oxo-7-propyl-3,4-dihydroimidazo[5,1-f][1,2,4]triazin-2-yl)phenyl)-5-oxo-2-thioxoimidazolidin-1-yl)-2-(trifluoromethyl)benzonitrile]: the half-inhibitory concentration (IC50) at androgen receptor (AR) is more than 100 nM; against human PDE-5A1 it was not above 10 nM. Regarding `CCCc1nc(C)c2c(=O)[nH]c(-c3cc(NC(=O)Nc4ccc(C#N)c(C(F)(F)F)c4)ccc3OCC)nn12` [Compound 27, 1-(4-cyano-3-(trifluoromethyl)phenyl)-3-(4-ethoxy-3-(5-methyl-4-oxo-7-propyl-3,4-dihydroimidazo[5,1-f][1,2,4]triazin-2-yl)phenyl)urea], the figures for the IC50 against androgen receptor (AR) and on human PDE-5A1 were more than 100 nM and not above 10 nM, respectively.

Regarding `CCCc1nc(C)c2c(=O)[nH]c(-c3cc(NC(=S)Nc4ccc(C#N)c(C(F)(F)F)c4)ccc3OCC)nn12` [Compound 28, 1-(4-cyano-3-(trifluoromethyl)phenyl)-3-(4-ethoxy-3-(5-methyl-4-oxo-7-propyl-3,4-dihydroimidazo [5,1-f][1,2,4]triazin-2-yl)phenyl)thiourea], the IC50 was more than 100 nM against androgen receptor (AR) and not above 10 nM against human PDE-5A1.
